According to patent US9708316B2 (BRISTOL-MYERS SQUIBB COMPANY, priority 2014, dated 2017):

Tests used:
HIS-TGFβR1 T204D = target: T1, HIS-TGFβR1 T204D (Homo sapiens, UniProt P36897, T204D); test: HTRF probe-displacement assay, HIS-TGFβR1 T204D; type: binding; conditions: read-out: TGFβR1 (μM) IC50
T1 sequence (P36897 34-503 T204D): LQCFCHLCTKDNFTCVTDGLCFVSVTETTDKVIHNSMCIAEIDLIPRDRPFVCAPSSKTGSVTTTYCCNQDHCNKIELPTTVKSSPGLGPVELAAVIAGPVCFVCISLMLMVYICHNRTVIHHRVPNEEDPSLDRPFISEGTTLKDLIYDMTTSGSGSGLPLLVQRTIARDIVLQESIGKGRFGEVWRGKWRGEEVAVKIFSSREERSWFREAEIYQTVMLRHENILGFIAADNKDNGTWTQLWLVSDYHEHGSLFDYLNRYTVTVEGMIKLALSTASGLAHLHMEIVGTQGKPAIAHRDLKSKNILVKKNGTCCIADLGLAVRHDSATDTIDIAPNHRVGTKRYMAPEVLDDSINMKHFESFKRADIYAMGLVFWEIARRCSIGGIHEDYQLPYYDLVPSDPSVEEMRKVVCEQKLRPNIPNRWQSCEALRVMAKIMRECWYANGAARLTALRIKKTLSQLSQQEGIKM

HIS-TGFβR2 WT = HIS-TGFβR2 WT (Homo sapiens, UniProt P37173); test: HTRF probe-displacement assay, HIS-TGFβR2 WT; type: binding
Chain of HIS-TGFβR2 WT (P37173 23-567): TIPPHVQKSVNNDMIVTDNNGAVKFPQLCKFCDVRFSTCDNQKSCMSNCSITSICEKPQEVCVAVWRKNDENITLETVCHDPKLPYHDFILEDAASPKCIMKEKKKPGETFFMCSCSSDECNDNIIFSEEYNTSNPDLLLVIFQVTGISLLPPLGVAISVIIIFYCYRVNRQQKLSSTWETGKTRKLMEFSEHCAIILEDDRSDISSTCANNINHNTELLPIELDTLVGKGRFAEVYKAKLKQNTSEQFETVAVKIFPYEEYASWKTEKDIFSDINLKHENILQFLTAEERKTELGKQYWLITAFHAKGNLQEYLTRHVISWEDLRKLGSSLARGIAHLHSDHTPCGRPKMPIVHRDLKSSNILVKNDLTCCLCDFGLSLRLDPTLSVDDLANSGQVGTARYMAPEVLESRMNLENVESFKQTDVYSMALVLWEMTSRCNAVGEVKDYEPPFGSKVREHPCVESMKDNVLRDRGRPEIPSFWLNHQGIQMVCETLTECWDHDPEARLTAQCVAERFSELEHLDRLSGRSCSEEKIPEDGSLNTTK

IC50 (HIS-TGFβR1 T204D)	IC50 (HIS-TGFβR2 WT)	SMILES
0.003 µM	≥ 15 µM	O=C(CN1CCNCC1)Nc1cc(-c2[nH]c3cc(Cl)cnc3c2-c2ccc(F)cn2)ccn1 [Example 247, N-(4-(6-Chloro-3-(5-fluoropyridin-2-yl)-1H-pyrrolo[3,2-b]pyridin-2-yl)pyridin-2-yl)-2-(piperazin-1-yl)acetamide]
0.019 µM	> 15 µM	COc1ccc(-c2c(-c3ccnc(NC(C)=O)c3)[nH]c3cc(S(C)(=O)=O)cnc23)nc1 [Example 91, N-{4-[6-Methanesulfonyl-3-(5-methoxypyridin-2-yl)-1H-pyrrolo[3,2-b]pyridin-2-yl]pyridin-2-yl}acetamide]
0.001 µM	0.031 µM	CCC(O)c1ccnc2c(-c3ccc(OC)nc3)c(-c3ccnc(NC(C)=O)c3)[nH]c12 (centres unmarked) [Example 301, N-(4-(7-(1-Hydroxypropyl)-3-(6-methoxypyridin-3-yl)-1H-pyrrolo[3,2-b]pyridin-2-yl)pyridin-2-yl)acetamide]
0.049 µM	0.44 µM	CC(=O)Nc1cc(-c2[nH]c3cccnc3c2-c2cc(Cl)ccn2)ccn1 [Example 32, N-{4-[3-(4-Chloropyridin-2-yl)-1H-pyrrolo[3,2-b]pyridin-2-yl]pyridin-2-yl}acetamide]
0.021 µM	3.61 µM	COc1ccc(-c2c(-c3ccnc(NC(C)=O)c3)n(C)c3cccnc23)cn1 [Example 54, N-{4-[3-(6-Methoxypyridin-3-yl)-1-methyl-1H-pyrrolo[3,2-b]pyridin-2-yl]pyridin-2-yl}acetamide]
0.057 µM	0.01 µM	CC(=O)Nc1cc(-c2[nH]c3cccnc3c2-c2cnc(F)c(F)c2)ccn1 [Example 10, N-{4-[3-(5,6-Difluoropyridin-3-yl)-1H-pyrrolo[3,2-b]pyridin-2-yl]pyridin-2-yl}acetamide]
0.01 µM	4.05 µM	COC(=O)Nc1cc(-c2[nH]c3cc(Cl)cnc3c2-c2ccc(F)cn2)ccn1 [Example 85, Methyl N-{4-[6-chloro-3-(5-fluoropyridin-2-yl)-1H-pyrrolo[3,2-b]pyridin-2-yl]pyridin-2-yl}carbamate]
0.002 µM	6.29 µM	CCOc1ccc(-c2c(-c3ccnc(NC(C)=O)c3)[nH]c3cc(Cl)cnc23)cn1 [Example 258, N-(4-(6-Chloro-3-(6-ethoxypyridin-3-yl)-1H-pyrrolo[3,2-b]pyridin-2-yl)pyridin-2-yl)acetamide]
0.005 µM	7.35 µM	COc1cnc2c(-c3cccc(C)n3)c(-c3ccnc(NC(=O)CN(C)C)c3)[nH]c2c1 [Example 116, 2-(Dimethylamino)-N-{4-[6-methoxy-3-(6-methylpyridin-2-yl)-1H-pyrrolo[3,2-b]pyridin-2-yl]pyridin-2-yl}acetamide]
0.058 µM	> 15 µM	CC(=O)Nc1cc(-c2[nH]c3cc(Cl)cnc3c2-c2nc(C)ns2)ccn1 [Example 179, N-(4-(6-chloro-3-(3-methyl-1,2,4-thiadiazol-5-yl)-1H-pyrrolo[3,2-b]pyrdin-2-yl)pyridin-2-yl)acetamide]
7 µM	> 15 µM	CC(=O)Nc1cc(-c2[nH]c3cc(C)cnc3c2-c2ncc(C(F)F)s2)ccn1 [Example 185, N-(4-(3-(5-(Difluoromethyl)thiazol-2-yl)-6-methyl-1H-pyrrolo[3,2-b]pyridin-2-yl)pyridin-2-yl)acetamide]
0.009 µM	> 15 µM	CC(=O)Nc1cc(-c2[nH]c3c(OCCN4CCCC4)ccnc3c2-c2cccc(C(F)F)n2)ccn1 [Example 126, N-(4-{3-[6-(Difluoromethyl)pyridin-2-yl]-7-[2-(pyrrolidin-1-yl)ethoxy]-1H-pyrrolo[3,2-b]pyridin-2-yl}pyridin-2-yl)acetamide]
0.002 µM	0.087 µM	CC(=O)Nc1cc(-c2[nH]c3cccnc3c2-c2cccc(F)n2)ccn1 [Example 16, N-{4-[3-(6-Fluoropyridin-2-yl)-1H-pyrrolo[3,2-b]pyridin-2-yl]pyridin-2-yl}acetamide]
0.019 µM	> 15 µM	CC(=O)Nc1cc(-c2[nH]c3c(Cl)ccnc3c2-c2ccc(Cl)cn2)ccn1 [Example 63, N-{4-[7-Chloro-3-(5-chloropyridin-2-yl)-1H-pyrrolo[3,2-b]pyridin-2-yl]pyridin-2-yl}acetamide]
0.002 µM	0.352 µM	COc1ccc(-c2c(-c3ccnc(NC(C)=O)c3)[nH]c3c(Cl)ccnc23)cn1 [Example 271, N-(4-(7-Chloro-3-(6-methoxypyridin-3-yl)-1H-pyrrolo[3,2-b]pyridin-2-yl)pyridin-2-yl)acetamide]
0.023 µM	4.12 µM	CC(=O)Nc1cc(-c2[nH]c3c(CO)ccnc3c2-c2ccc(C)nc2)ccn1 [Example 280, N-(4-(7-(Hydroxymethyl)-3-(6-methylpyridin-3-yl)-1H-pyrrolo[3,2-b]pyridin-2-yl)pyridin-2-yl)acetamide]

IC50 (HIS-TGFβR1 T204D)	IC50 (HIS-TGFβR2 WT)	SMILES
0.014 µM	> 15 µM	CC(=O)Nc1cc(-c2[nH]c3cccnc3c2-c2ccc3cnccc3c2)ccn1 [Example 17, N-{4-[3-(Isoquinolin-6-yl)-1H-pyrrolo[3,2-b]pyridin-2-yl]pyridin-2-yl}acetamide]
0.002 µM	0.068 µM	COc1ccc(-c2c(-c3ccnc(NC(C)=O)c3)[nH]c3cc(Cl)cnc23)cn1 [Example 43, N-{4-[6-Chloro-3-(6-methoxypyridin-3-yl)-1H-pyrrolo[3,2-b]pyridin-2-yl]pyridin-2-yl}acetamide]
0.0029 µM	0.821 µM	CC(=O)Nc1cc(-c2[nH]c3cc(C)cnc3c2-c2csc(C)n2)ccn1 [Example 186, N-(4-(6-Methyl-3-(2-methylthiazol-4-yl)-1H-pyrrolo[3,2-b]pyridin-2-yl)pyridin-2-yl)acetamide]
0.027 µM	0.34 µM	CC(=O)Nc1cc(-c2[nH]c3cc(Cl)cnc3c2-c2cc(C)c(F)cn2)ccn1 [Example 44, N-{4-[6-Chloro-3-(5-fluoro-4-methylpyridin-2-yl)-1H-pyrrolo[3,2-b]pyridin-2-yl]pyridin-2-yl}acetamide]
0.361 µM	≥ 15 µM	COc1ccc(-c2c(-c3ccnc(NCC(C)C)c3)[nH]c3cc(Cl)cnc23)nc1 [Example 243, 4-(6-Chloro-3-(5-methoxypyridin-2-yl)-1H-pyrrolo[3,2-b]pyridin-2-yl)-N-isobutylpyridin-2-amine]
7.73 µM	> 15 µM	COC(=O)c1cc(Cl)nc2c(-c3ccc(Cl)cn3)c(-c3ccnc(NC(C)=O)c3)[nH]c12 [Example 70, Methyl 5-chloro-3-(5-chloropyridin-2-yl)-2-(2-acetamidopyridin-4-yl)-1H-pyrrolo[3,2-b]pyridine-7-carboxylate]
0.001 µM	3.84 µM	COCCCc1ccnc2c(-c3cccc(C(F)F)n3)c(-c3ccnc(NC(C)=O)c3)[nH]c12 [Example 131, N-(4-{3-[6-(Difluoromethyl)pyridin-2-yl]-7-(3-methoxypropyl)-1H-pyrrolo[3,2-b]pyridin-2-yl}pyridin-2-yl)acetamide]
0.0025 µM	0.815 µM	COc1cnc2c(-c3csc(C)n3)c(-c3ccnc(NC(C)=O)c3)[nH]c2c1 [Example 210, N-(4-(6-Methoxy-3-(2-methylthiazol-4-yl)-1H-pyrrolo[3,2-b]pyridin-2-yl)pyridin-2-yl)acetamide]
0.0015 µM	0.225 µM	CC(=O)Nc1cc(-c2[nH]c3cccnc3c2-c2ncc(C)s2)ccn1 [Example 202, N-(4-(3-(5-Methylthiazol-2-yl)-1H-pyrrolo[3,2-b]pyridin-2-yl)pyridin-2-yl)acetamide]
0.003 µM	6.21 µM	COc1ccnc2c(-c3cccc(C)n3)c(-c3ccnc(NC(C)=O)c3)[nH]c12 [Example 257, N-(4-(7-Methoxy-3-(6-methylpyridin-2-yl)-1H-pyrrolo[3,2-b]pyridin-2-yl)pyridin-2-yl)acetamide]
0.003 µM	0.115 µM	CC(=O)Nc1cc(-c2[nH]c3c(C(C)O)ccnc3c2-c2nc(C)cs2)ccn1 (centres unmarked) [Example 232, N-(4-(7-(1-Hydroxyethyl)-3-(4-methylthiazol-2-yl)-1H-pyrrolo[3,2-b]pyridin-2-yl)pyridin-2-yl)acetamide]
0.053 µM	> 15 µM	COc1cnc2c(-c3ccc(C(F)F)cn3)c(-c3ccnc(NC(C)=O)c3)[nH]c2c1 [Example 110, N-(4-(3-(5-(Difluoromethyl)pyridin-2-yl)-6-methoxy-1H-pyrrolo[3,2-b]pyridin-2-yl)pyridin-2-yl)acetamide]
0.001 µM	8.68 µM	COc1ccc(-c2c(-c3ccnc(NC(=O)CN(C)C)c3)[nH]c3cc(OC)cnc23)nc1 [Example 115, 2-(Dimethylamino)-N-{4-[6-methoxy-3-(5-methoxypyridin-2-yl)-1H-pyrrolo[3,2-b]pyridin-2-yl]pyridin-2-yl}acetamide]
0.006 µM	9.9 µM	CC(=O)Nc1cc(-c2[nH]c3c(CO)ccnc3c2-c2cccc(C)n2)ccn1 [Example 279, N-(4-(7-(Hydroxymethyl)-3-(6-methylpyridin-2-yl)-1H-pyrrolo[3,2-b]pyridin-2-yl)pyridin-2-yl)acetamide]
0.002 µM	> 15 µM	COc1ccc(-c2c(-c3ccnc(NC(C)=O)c3)[nH]c3cc(C#N)cnc23)nc1 [Example 92, N-{4-[6-Cyano-3-(5-methoxypyridin-2-yl)-1H-pyrrolo[3,2-b]pyridin-2-yl]pyridin-2-yl}acetamide]
